Assay results published in article PMC2954055 (Journal of immunology (Baltimore, Md. : 1950), 2009).
pKd: −log10 of the molar value.

Biological target: BRS peptide (biotinylated peptide consisting of just the BRS of CD3 ε) (Mus musculus, UniProt P22646)
Assay: solid-phase ELISA, biotinylated peptide, streptavidin-HRP
Format: binding
Details: PBS, room temperature, data not shown

pKd (20/80 PI(4)P/PC coated on plate) | pKd (20/80 PI(4,5)P2/PC coated on plate) | Substance
~7.40 |  | PI(4)P
 | ~7.40 | PI(4,5)P2
